The values that follow come from article doi:10.1101/2024.06.14.598950v1 (biorxiv, 2024).

In general, Km refers to the substrate concentration at which the rate is half of its maximum.

Test in all cases: DTNB spectrophotometric assay, nonlinear regression
Assay type in all cases: biochemical, Brassica juncea
What all share (settings): 30 °C

The subject of test [1] is Bju.IPMS1-B2.
Test [2] deals with Bju.IPMS1-A1.
Test [3] deals with Bju.IPMS1-A2.
The subject of test [4] is Bju.IPMS1-B1.

As to `CC(=O)SCCNC(=O)CCNC(=O)[C@H](O)C(C)(C)COP(=O)(O)OP(=O)(O)OC[C@H]1O[C@@H](n2cnc3c(N)ncnc32)[C@H](O)[C@@H]1OP(=O)(O)O` [acetyl-CoA], the Km worked out at 532 ± 91.9 µM in test [1] (1 mM 2-oxoisovalerate), 770 ± 211 µM in test [2] (1 mM 2-oxoisovalerate), 406 ± 75.9 µM in test [3] (1 mM 2-oxoisovalerate) and 1260 ± 369 µM in test [4] (1 mM 2-oxoisovalerate).
Consider `CC(C)C(=O)C(=O)O` [2-oxoisovalerate, 3-methyl-2-oxobutanoate], for which the Km in test [1] (0.5 mM acetyl-CoA) stood at 231 ± 47.1 µM; in test [2] (0.5 mM acetyl-CoA), 158 ± 35.4 µM; in test [3] (0.5 mM acetyl-CoA), 144 ± 40.9 µM; in test [4] (0.5 mM acetyl-CoA), 217 ± 67.2 µM.
